Reference: PubChem BioAssay (NCI)
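Method: 48-hour compound exposure of cells in 96-well plates, five concentrations, linear interpolation of endpoints. At the GI50, growth is halved. TGI denotes the concentration required for complete inhibition of growth.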

Assays:
Experiment in all cases: NCI anticancer screen, dose series, 48 h
786-0 renal = test system: 786-0 renal
ACHN renal = test system: ACHN renal
CAKI-1 renal = test system: CAKI-1 renal
LOX IMVI melanoma = test system: LOX IMVI melanoma
M14 melanoma = test system: M14 melanoma
MDA-MB-231 breast = test system: MDA-MB-231 breast
SF-295 CNS = test system: SF-295 CNS
SK-MEL-28 melanoma = test system: SK-MEL-28 melanoma
UACC-257 melanoma = test system: UACC-257 melanoma
UO-31 renal = test system: UO-31 renal

Row | Structure (SMILES) | GI50 (786-0 renal) [µM] | TGI (786-0 renal) [µM] | GI50 (ACHN renal) [µM] | TGI (ACHN renal) [µM] | GI50 (CAKI-1 renal) [µM] | TGI (CAKI-1 renal) [µM] | GI50 (LOX IMVI melanoma) [µM] | TGI (LOX IMVI melanoma) [µM] | GI50 (M14 melanoma) [µM] | TGI (M14 melanoma) [µM] | GI50 (MDA-MB-231 breast) [µM] | TGI (MDA-MB-231 breast) [µM] | GI50 (SF-295 CNS) [µM] | TGI (SF-295 CNS) [µM] | GI50 (SK-MEL-28 melanoma) [µM] | TGI (SK-MEL-28 melanoma) [µM] | GI50 (UACC-257 melanoma) [µM] | TGI (UACC-257 melanoma) [µM] | GI50 (UO-31 renal) [µM] | TGI (UO-31 renal) [µM]
1 | O=C1/C(=C/c2ccc(F)c(F)c2)CN(C(=O)C(Cl)Cl)C/C1=C\c1ccc(F)c(F)c1 | 0.181 | 0.357 | 0.0776 | 0.249 | 0.188 | 0.551 | 0.0222 | 0.0549 | 0.168 | 0.515 | 0.194 | 0.692 | 0.0454 | 0.21 | 0.208 | 0.513 | 0.259 | 0.888 | 0.0982 | 0.238
2 | CN(C)C[C@H]1CCn2c(c(C3=C(c4cn(C)c5ccccc45)C(=O)NC3=O)c3ccccc32)C1 | 4.78 | 9.29 | 4.3 | 9.87 | 3.82 | 8.74 | 4.58 | 8.56 | 4.49 | 8.47 | 3.96 | 10.3 | 5.21 | 11.3 | 4.25 | 8.02 | 4.45 | 8.45 | 3.45 | 7.31
3 | C=C1C(=O)O[C@H]2[C@H]1CC/C(Cn1cc(Cc3c[nH]c4ccccc34)nn1)=C\CC[C@@]1(C)O[C@@H]21 | 1.77 | 3.48 | 1.47 | 2.8 | 1.3 | 2.64 | 1.55 | 3.03 | 1.31 | 3.07 | 1.72 | 3.48 | 4.71 | 17.2 | 1.66 | 3.22 | 2.11 | 4.45 | 1.49 | 2.86
4 | O=C(O)C(Br)C(Br)C(=O)O (stereo not given) | – | > 100 | – | > 100 | – | > 100 | – | > 100 | – | > 100 | – | > 100 | – | > 100 | – | > 100 | – | > 100 | – | > 100
5 | CCCCCCCN(CCCCCCC)C(=N)c1ccnc2ccccc12 | 1.55 | 2.97 | 1.62 | 3.07 | 1.32 | 2.68 | 1.42 | 2.82 | 1.33 | 2.76 | 1.62 | 3.58 | 1.69 | 3.45 | 1.68 | 3.21 | 1.72 | 3.5 | 1.09 | 2.41
6 | O=C(O)C1CCN(Cc2oc(CO)cc(=O)c2O)C1 (stereo not given) | – | > 100 | – | > 100 | – | > 100 | – | > 100 | – | > 100 | – | > 100 | – | > 100 | – | > 100 | – | > 100 | – | > 100
7 | COc1cc2c3c(n(CCCCNC(=O)OC(C)(C)C)c(=O)c2cc1OC)-c1cc2c(cc1C3=O)OCO2 | 25 | > 100 | 20.1 | > 100 | 3.45 | 74.5 | > 100 | > 100 | > 100 | > 100 | > 100 | > 100 | 16.1 | > 100 | > 100 | > 100 | > 100 | > 100 | > 100 | > 100
8 | C[C@]12CC[C@@H]3c4ccc(O)cc4CC[C@H]3[C@@H]1CC[C@@H]2NS(=O)(=O)c1cccc(Cl)c1 | 2.47 | 6.13 | 2.58 | 7.69 | 2.97 | 10.6 | 1.75 | 3.4 | 2.34 | 6.35 | 2.44 | 7.75 | 3.1 | 10.8 | 2.24 | 5.93 | 2.9 | 12.3 | 2.01 | 8.75
9 | CCNc1cc2oc(=O)cc(C(F)(F)F)c2cc1C | – | > 100 | – | > 100 | – | > 100 | – | > 100 | – | > 100 | – | > 100 | – | > 100 | – | > 100 | – | > 100 | – | > 100
10 | COc1ccc(-c2nsc3c2NC(=O)CC3c2ccc3c(c2)OCCO3)cc1 (stereo not given) | 0.829 | > 100 | 0.892 | > 100 | 0.429 | > 100 | 0.601 | > 100 | 0.397 | > 100 | 1.59 | > 100 | 0.434 | > 33.2 | 2.7 | > 100 | 0.981 | > 100 | 2.19 | > 100
11 | Oc1[nH]c(N=C2N=c3ccccc3=N2)c2ccccc12 | 17.2 | 39.6 | 12.3 | 29 | 2.95 | 21.7 | 4.78 | 24.9 | 12.2 | 38.8 | 15.2 | 46.2 | 3.64 | 26 | 12.8 | 33.6 | 13.7 | > 100 | 4.58 | 18.6
12 | CCn1c(-c2c(Cl)cc(O)cc2Cl)cc2c(Cl)cc(O)cc21 | – | 24.8 | – | 16.9 | – | 30.5 | – | 32.8 | – | 91.5 | – | 31 | – | 19.8 | – | 10.1 | – | 26 | – | > 100
